Earlier results on six substances are cited in patent publication US8410049B2, “Methods and kits for preventing hypoglycemia” (Cebix, priority 2009, dated 2013).

The conditions of the data set: in vivo; cited from earlier work.

Aspart: the “Peak time of effect” value is on record as “around 30 minutes”.
As for Regular insulin, the Onset of action is 30 to 60 min.
As for Lispro, the “Peak time of effect” value was “around 30 minutes”.
On to Glargine insulin, for which the Duration of activity was 24 h and the “Peak time of effect” value is given as “no peak effect”.
On to Lantus, for which the Duration of activity result is “up to 24 hours”.
In the case of Glulisine, the “Peak time of effect” value is on record as “around 30 minutes”.
